Where “and” joins values, the source holds several entries; their conditions need not be identical. Identical values can stand only once. Entries after “also recorded” stand apart in the source; their conditions may differ.
Key:
[1] = SARD compound serum concentrations in Hershberger rats (LC-MS/MS); details: for Conc of 1065: serum of individual rats, 24-30 hours after the last dose, standards in nM
[2] = HLM metabolism (half-life); format: in vitro ADME, human; details: for HLM Metabolism (H.L. min): human liver microsomes half-life
Experimental: (§1) Table 4 reports the in vitro efficacy (transactivation/degradation) and metabolism (rat liver microsomes (RLM) and human LM (HLM) half-lives) data, in vivo efficacy (S.V. and prostate % diff in rats) and serum concentration in rats for all the compounds in the 20 mg/kg Hershberger experiment. […].

[3] = RLM metabolism (half-life); format: in vitro ADME; details: rat liver microsomes half-life
Experimental: as §1

[4] = system: Intact Sprague Dawley rats; assay: Hershberger assay, seminal vesicles and prostate weights; format: in vivo, rat
Experimental: Dosing solutions were prepared in 20% DMSO+80% PEG. Fourteen days after the initiation of treatment, animals were sacrificed and tissue weights were recorded. Body weights were measured on day 1 and at the time of sacrifice. Tissue weights were normalized to body weight and represented as percent change from vehicle-treated animals.

hAR-LBD (633-919) = target: T1, hAR-LBD (633-919) (Homo sapiens, UniProt P10275); assay: Ligand binding assay, GST-AR-LBD with [3H]mibolerone
T1 construct: GST (N); made in house
T1 sequence (P10275 634-920): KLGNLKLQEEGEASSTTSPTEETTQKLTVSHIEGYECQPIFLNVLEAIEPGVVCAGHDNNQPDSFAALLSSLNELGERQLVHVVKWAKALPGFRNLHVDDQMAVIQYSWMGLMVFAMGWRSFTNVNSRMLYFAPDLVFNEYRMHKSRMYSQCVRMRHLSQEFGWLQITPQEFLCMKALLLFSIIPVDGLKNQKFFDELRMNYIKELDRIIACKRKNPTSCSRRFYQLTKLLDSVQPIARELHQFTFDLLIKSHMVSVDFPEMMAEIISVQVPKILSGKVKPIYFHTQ
Experimental: Objective: To determine SARDs binding affinity to the AR-LBD.
Non-specific binding was then subtracted from total binding to determine specific binding and non-linear regression for ligand binding curve with one site saturation to determine the Kd of mibolerone.
Following incubation, the ligand bound AR-LBD complex was isolated using Bio Gel HT® hydroxyapatite, washed and counted in a scintillation counter after adding scintillation cocktail.

AR wildtype (wt) = AR wildtype (wt) (Homo sapiens, UniProt P10275); assay: Transactivation assay with wt AR (GRE-LUC luciferase); format: cell-based
Experimental: COS7 cells were transfected with 0.25 μg GRE-LUC, 0.01 g CMV-renilla LUC, and 25 ng CMV-hAR using Lipofectamine in OptiMEM® medium. […] Firefly luciferase values were normalized to renilla luciferase values.
Firefly luciferase values were normalized to renilla luciferase values.
Human AR cloned into CMV vector backbone was used for the transactivation study. HEK-293 cells were plated at 120,000 cells per well of a 24 well plate in DME+5% csFBS. […] Data are represented as IC50 obtained from four parameter logistics curve.

full length AR = assay: LNCaP or AD1 degradation (full length AR, Western blot); format: cell-based
Experimental: The numbers under each lane represents the % change from vehicle. The bands were quantified using ImageJ® software. For each lane, the AR band was divided by GAPDH band and the % difference from vehicle was calculated and represented under each lane. The numbers shown are 0 (no degradation) or represented as decreases in AR levels normalized for GAPDH levels (some values represented as positive but still indicate degradation).
Method: LNCaP or AD1 cells expressing full length AR were plated at 750,000-1,000,000 cells/well of a 6 well plate in growth medium (RPMI+10% FBS). Twenty four hours after plating, medium was changed to RPMI+1% csFBS without phenol red and maintained in this medium for 2 days. […] Protein was extracted using salt-containing lysis buffer with three freeze-thaw cycles. Protein concentration was estimated and five microgram of total protein was loaded on a SDS-PAGE, fractionated, and transferred to a PVDF membrane. […]
The numbers under each lane represents the % change from vehicle. The bands were quantified using ImageJ software. For each lane, the AR band was divided by GAPDH band and the % difference from vehicle was calculated and represented under each lane The numbers shown are 0 (no degradation) or represented as decreases in AR levels normalized for GAPDH levels (some values represented as positive but still indicate degradation).

PR = target: T2, PR (Homo sapiens, UniProt P06401); details: positive control
T2 sequence (P06401 1-933): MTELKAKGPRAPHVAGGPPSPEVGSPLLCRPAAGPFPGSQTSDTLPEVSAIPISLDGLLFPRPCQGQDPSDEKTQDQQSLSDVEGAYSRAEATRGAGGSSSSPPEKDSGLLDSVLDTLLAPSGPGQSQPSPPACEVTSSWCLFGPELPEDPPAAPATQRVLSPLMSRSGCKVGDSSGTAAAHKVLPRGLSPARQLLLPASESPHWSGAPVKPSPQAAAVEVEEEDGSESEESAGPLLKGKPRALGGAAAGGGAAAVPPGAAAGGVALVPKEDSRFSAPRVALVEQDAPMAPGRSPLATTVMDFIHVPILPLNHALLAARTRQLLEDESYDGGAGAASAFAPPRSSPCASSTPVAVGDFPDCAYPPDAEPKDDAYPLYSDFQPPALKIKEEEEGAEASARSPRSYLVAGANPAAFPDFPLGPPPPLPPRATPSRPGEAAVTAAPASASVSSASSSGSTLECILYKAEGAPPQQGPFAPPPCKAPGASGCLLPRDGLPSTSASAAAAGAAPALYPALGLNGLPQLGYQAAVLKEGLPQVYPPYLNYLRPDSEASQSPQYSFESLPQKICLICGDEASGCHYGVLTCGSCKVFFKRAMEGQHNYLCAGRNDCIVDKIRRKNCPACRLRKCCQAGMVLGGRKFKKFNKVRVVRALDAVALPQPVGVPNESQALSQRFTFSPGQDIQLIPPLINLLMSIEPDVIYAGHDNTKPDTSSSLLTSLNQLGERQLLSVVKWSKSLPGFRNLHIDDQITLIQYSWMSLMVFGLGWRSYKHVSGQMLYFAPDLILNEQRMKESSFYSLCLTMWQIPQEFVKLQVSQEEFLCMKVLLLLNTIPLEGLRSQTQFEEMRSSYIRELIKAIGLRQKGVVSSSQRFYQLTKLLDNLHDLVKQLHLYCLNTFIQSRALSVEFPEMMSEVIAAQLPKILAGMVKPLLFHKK

[5] = Table 2, rats, 20 mg/kg daily for 13 days
[6] = 20 mg/kg Hershberger experiment

AR wildtype (wt), sequence (P10275 whole entry): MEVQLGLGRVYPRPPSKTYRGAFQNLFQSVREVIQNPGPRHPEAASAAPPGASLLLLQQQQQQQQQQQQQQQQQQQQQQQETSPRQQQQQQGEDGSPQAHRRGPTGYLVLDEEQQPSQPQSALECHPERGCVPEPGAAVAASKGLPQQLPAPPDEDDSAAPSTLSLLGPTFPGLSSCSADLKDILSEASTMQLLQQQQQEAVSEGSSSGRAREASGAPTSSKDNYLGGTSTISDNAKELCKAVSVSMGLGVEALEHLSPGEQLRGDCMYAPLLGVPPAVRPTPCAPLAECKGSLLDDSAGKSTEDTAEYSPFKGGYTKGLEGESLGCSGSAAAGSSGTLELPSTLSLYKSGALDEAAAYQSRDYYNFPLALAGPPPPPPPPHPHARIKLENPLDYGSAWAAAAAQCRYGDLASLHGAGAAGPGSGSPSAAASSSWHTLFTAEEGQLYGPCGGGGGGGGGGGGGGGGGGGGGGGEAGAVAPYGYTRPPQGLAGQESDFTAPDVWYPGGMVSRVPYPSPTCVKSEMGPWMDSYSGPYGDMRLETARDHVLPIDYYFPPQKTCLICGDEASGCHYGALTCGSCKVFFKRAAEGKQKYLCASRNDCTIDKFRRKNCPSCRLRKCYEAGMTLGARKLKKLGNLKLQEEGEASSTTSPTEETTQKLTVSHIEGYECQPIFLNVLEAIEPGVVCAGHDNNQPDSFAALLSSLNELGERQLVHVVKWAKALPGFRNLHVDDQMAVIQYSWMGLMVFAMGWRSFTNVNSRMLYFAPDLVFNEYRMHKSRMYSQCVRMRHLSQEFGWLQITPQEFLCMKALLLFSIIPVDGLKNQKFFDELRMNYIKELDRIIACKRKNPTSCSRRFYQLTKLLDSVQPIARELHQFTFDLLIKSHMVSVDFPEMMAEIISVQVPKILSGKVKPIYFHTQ

SMILES: C[C@](O)(Cn1cc(F)cn1)C(=O)Nc1ccc(C#N)c(C(F)(F)F)c1.O=C(O)C(O)C(O)C(=O)O [1002 tartarate]
- Serum conc. [1, 5]: 12.4 nM

SMILES: C[C@](O)(Cn1ccc2cc(F)ccc21)C(=O)Nc1ccc(C#N)c(C(F)(F)F)c1 [Compound 11]
- HLM Metabolism (H.L. min) [2]: 6 min

SMILES: C[C@](O)(Cn1cc(F)cn1)C(=O)Nc1ccc(C#N)c(C(F)(F)F)c1 [Compound 1002]
- Serum conc. [1, 5]: 9.3 nM

SMILES: C[C@](O)(Cn1cc(C(F)(F)F)cn1)C(=O)Nc1ccc(C#N)c(C(F)(F)F)c1 [Compound 1017]
- RLM Metabolism (H.L. min) [3]: 400 min
- HLM Metabolism (H.L. min) [2]: 400 min

SMILES: C[C@](O)(Cn1cc(F)cn1)C(=O)Nc1cnc(C#N)c(C(F)(F)F)c1 [Compound 1022]
- RLM Metabolism (H.L. min) [3]: 78 min
- HLM Metabolism (H.L. min) [2]: 82 min
- Serum conc. [1, 5]: 64 nM
- Serum conc. ([1]; Table 4, rats, 20 mg/kg): 33 nM

SMILES: C[C@](O)(Cn1cc(C#N)cn1)C(=O)Nc1ccc(C#N)c(C(F)(F)F)c1 [Compound 1048]
- RLM Metabolism (H.L. min) [3]: 86 min
- HLM Metabolism (H.L. min) [2]: 400 min

SMILES: C[C@](O)(Cn1cc(Br)c(F)n1)C(=O)Nc1ccc(C#N)c(C(F)(F)F)c1 [Compound 1058, (S)-3-(4-Bromo-3-fluoro-1H-pyrazol-1-yl)-N-(4-cyano-3-(trifluoromethyl)phenyl)-2-hydroxy-2-methylpropanamide]
- RLM Metabolism (H.L. min) [3]: 400 min
- HLM Metabolism (H.L. min) [2]: 138 min

SMILES: C[C@](O)(Cn1cc(C#N)cn1)C(=O)Nc1cnc(C#N)c(C(F)(F)F)c1 [Compound 1065]
- (Prostate) % diff [4, 6]: .58%
- (S.V.) % diff [4, 6]: .88%
- Seminal vesicles weight reduction / in vivo AR antagonism, in words ([4]; 20 mg/kg, compared to 1002 or castration): full AR antagonism in vivo; also recorded: reached castration levels; also recorded: significantly improved efficacy
- Prostate weight reduction, improved efficacy compared to 1002 ([4]; FIGS. 7C and 7D): approximately 45%
- RLM Metabolism (H.L. min) [3]: 84 min
- HLM Metabolism, % metabolized after 60 min ([2]; after 60 min): 10%
- HLM Metabolism (H.L. min) [2]: STABLE
- Serum conc. ([1]; Table 4, rats, 20 mg/kg): 561 nM
- Conc of 1065 ([1]; 1 mg/kg, 1 mg/kg): 81.58 and 87.25 and 120.1244 and 134.5505 and 129.9323
- Conc of 1065 ([1]; 5 mg/kg, 5 mg/kg): 630.4879 and 691.1901 and 485.4264 and 967.3936 and 798.7984
- Conc of 1065 ([1]; 10 mg/kg, 10 mg/kg): 637.641 and 915.1312 and 824.8076 and 681.9936 and 795.917
- Conc of 1065 ([1]; 20 mg/kg, 20 mg/kg): 1286.902 and 1298.179 and 1360.687 and 1397.834 and 1193.986

SMILES: C[C@](O)(Cn1cc(Cl)c(Br)n1)C(=O)Nc1ccc(C#N)c(C(F)(F)F)c1 [Compound 1066]
- RLM Metabolism (H.L. min) [3]: 300 min
- HLM Metabolism (H.L. min) [2]: 319 min

SMILES: C[C@@H](Cn1cc(F)cn1)NC(=O)c1ccc(C#N)c(C(F)(F)F)c1 [Compound 1068, (S)-4-Cyano-N-(1-(4-fluoro-1H-pyrazol-1-yl)propan-2-yl)-3-(trifluoromethyl)benzamide]
- wtAR Binding Ki (nM) (DHT = 1 nM) (hAR-LBD (633-919)): no binding
- IC50 (AR wildtype (wt)): 417 nM
- SARD Activity Full Length % inhibition at 1 μM (full length AR; first of two values in the cell, 1 μM): 62%
- SARD Activity Full Length % inhibition at 10 μM (full length AR; second of two values in the cell, 10 μM): 96%

SMILES: CNC(=O)c1ccc(N2C(=S)N(c3ccc(C#N)c(C(F)(F)F)c3)C(=O)C2(C)C)cc1F [Enzalutamide, reference compound]
- Seminal vesicles weight reduction compared to 1002, in words ([4]; enzalutamide 30 mg/kg): marginally improved

SMILES: CC(=O)[C@H]1CC[C@H]2[C@@H]3CCC4=CC(=O)CC[C@]4(C)[C@H]3CC[C@]12C [progesterone]
- PR agonism, in words (PR): potent and full efficacy agonist activity

Source: patent publication US20210196678A1, “SELECTIVE ANDROGEN RECEPTOR DEGRADER (SARD) LIGANDS AND METHODS OF USE THEREOF” (University of Tennessee Research Foundation, priority 2018, published 2021)
